Experiments:
[1] = test system: CYP450 1A2 activity in human liver microsomes; experiment: Human liver microsome assay with compound 3019
Procedure: (§1) Equal volumes of P450-Glo LDR with 6.6 mM D-Cysteine was added into the CYP450 reactions.

CYP1A2 = experiment: Non-lytic cell-based assay with human hepatocytes, compound 3019; settings: non-lytic, 3 μM compound 3019, 1 hour
Procedure: Human cryopreserved hepatocytes (Celsis lot RTM) were thawed and seeded in hepatocyte culture medium in wells of a collagen-coated, 96-well culture plate at ˜70,000 cells per well and kept at 37° C. in standard cell culture incubator with 5% CO2. The cells were then treated for 48 hours with 100 μM omeprazole or vehicle control (0.1% dimethylsulfoxide) dissolved in hepatocytes culture medium (n═3 for each treatment, mean values and standard deviations are shown). […] 50 μl of the KH incubation buffer was then removed from each well and transferred to a well of a white, 96-well luminometer plate (Costar) where it was also combined with 50 μl of P450-Glo LDR containing 6.6 mM D-cysteine.

[2] = target: Human recombinant CYP450 1A2 (Homo sapiens, UniProt P05177)
Procedure: as §1

UGT 1A10 = target: T1, UGT 1A10 (Homo sapiens, UniProt Q9HAW8); experiment: Recombinant UGT panel, substrate utilization; assay type: biochemical; settings: 2 hour incubation at 37° C., recombinant Supersomes, background corrected
T1 construct: purchased BD Gentest; host or cells: insect cells (microsomes)
Procedure: (§2) During this incubation, the cysteine reacts with the cyanobenzathiozole substrate to yield a D-luciferin derivative. […] Therefore, activity of the UGT enzyme can be measured by analyzing the difference (lower or no output) in relative light units (RLU) of a sample in which glucuronidation occurs compared to a sample that was run under the same conditions with no added UDPGA cofactor.
(§3) In this example, a series of 12 recombinant UGTs expressed in insect microsomes (Supersomes™, BD Gentest™), as well as the control microsomes not expressing the UGT enzyme, were incubated with compound 3138, compound 3478, or compound 3165 as substrates, with or without the UDPGA co-factor.
(§4) After addition of a luciferin detection reagent (LDR) containing D-cysteine, both the substrate and the product were converted to D-luciferins (compound 3478 is already a luciferin derivative before addition of the LDR).
(§5) Reactions were assembled in a white, 96-well plate. Each well contained 20 μL of reaction mixture comprised of 100 mM TES, pH 7.5, 16 mM MgCl2, 50 μg/mL alamethicin (Sigma), 60 μM compound 3138 or compound 3478, and 0.4 mg/mL of control or recombinant UGT membranes. The reactions were initiated by addition of 20 μL of water or 8 mM triammonium UDPGA (Sigma) to each well. The plate was mixed, sealed, and incubated in a 37° C. water bath for 2 hours. After the incubation, 40 μL P450-Glo LDR (Promega) with 20 mM D-cysteine-HCl.H2O (Sigma) was added to each well, the plate was mixed and allowed to incubate at room temperature for 20 minutes. After the incubation was completed, the plate was read on a Veritas™ luminometer (Turner BioSystems, Inc.; Sunnyvale, Calif.).
(§6) For each isozyme, the bioluminescence from the replicates containing UDPGA were subtracted from the average bioluminescence of the replicates without UDPGA. The average Δ RLU value obtained and the standard deviation of the replicates were then divided by the average bioluminescence for samples without UDPGA to obtain the % utilization for each isozyme. The % utilization obtained from the control microsomes was then subtracted from each isozyme to give the background corrected utilization data for those isozymes.

UGT 1A8 = target: T2, UGT 1A8 (Homo sapiens, UniProt Q9HAW9); experiment: Recombinant UGT panel, substrate utilization; assay type: biochemical; settings: 2 hour incubation at 37° C., recombinant Supersomes, background corrected
T2 construct: purchased BD Gentest; host or cells: insect cells (microsomes)
Procedure: as §2, §3, §4, §5, §6

UGT 1A4 = target: T3, UGT 1A4 (Homo sapiens, UniProt P22310); experiment: Recombinant UGT panel, substrate utilization; assay type: biochemical; settings: 2 hour incubation at 37° C., recombinant Supersomes
T3 construct: purchased BD Gentest; host or cells: insect cells (microsomes)
T3 sequence (P22310 29-534): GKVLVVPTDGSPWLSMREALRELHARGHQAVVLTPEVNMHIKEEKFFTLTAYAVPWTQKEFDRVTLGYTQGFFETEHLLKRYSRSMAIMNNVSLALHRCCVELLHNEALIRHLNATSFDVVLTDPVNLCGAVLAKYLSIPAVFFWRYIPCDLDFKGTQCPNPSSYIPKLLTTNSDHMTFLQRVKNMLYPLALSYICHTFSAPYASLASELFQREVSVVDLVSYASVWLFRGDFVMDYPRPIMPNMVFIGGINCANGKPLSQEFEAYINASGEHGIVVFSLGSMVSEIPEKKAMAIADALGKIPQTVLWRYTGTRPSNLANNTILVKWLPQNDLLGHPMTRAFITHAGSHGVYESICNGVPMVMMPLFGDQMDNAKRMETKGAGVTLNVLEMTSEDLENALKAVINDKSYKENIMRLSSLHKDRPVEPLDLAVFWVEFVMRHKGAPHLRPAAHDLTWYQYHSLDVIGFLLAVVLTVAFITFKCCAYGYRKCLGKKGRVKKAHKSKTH
Procedure: as §2, §3, §4, §5, §6

UGT 2B17 = target: T4, UGT 2B17 (Homo sapiens, UniProt O75795); experiment: Recombinant UGT panel, substrate utilization; assay type: biochemical; settings: 2 hour incubation at 37° C., recombinant Supersomes
T4 construct: purchased BD Gentest; host or cells: insect cells (microsomes)
Procedure: as §2, §3, §4, §5, §6

UGT 1A7 = target: T5, UGT 1A7 (Homo sapiens, UniProt Q9HAW7); experiment: Recombinant UGT panel, substrate utilization; assay type: biochemical; settings: 2 hour incubation at 37° C., recombinant Supersomes
T5 construct: purchased BD Gentest; host or cells: insect cells (microsomes)
Procedure: as §2, §3, §4, §5, §6

UGT 1A9 = target: T6, UGT 1A9 (Homo sapiens, UniProt O60656); experiment: Recombinant UGT panel, substrate utilization; assay type: biochemical; settings: 2 hour incubation at 37° C., recombinant Supersomes, background corrected
T6 construct: purchased BD Gentest; host or cells: insect cells (microsomes)
T6 sequence (O60656 26-530): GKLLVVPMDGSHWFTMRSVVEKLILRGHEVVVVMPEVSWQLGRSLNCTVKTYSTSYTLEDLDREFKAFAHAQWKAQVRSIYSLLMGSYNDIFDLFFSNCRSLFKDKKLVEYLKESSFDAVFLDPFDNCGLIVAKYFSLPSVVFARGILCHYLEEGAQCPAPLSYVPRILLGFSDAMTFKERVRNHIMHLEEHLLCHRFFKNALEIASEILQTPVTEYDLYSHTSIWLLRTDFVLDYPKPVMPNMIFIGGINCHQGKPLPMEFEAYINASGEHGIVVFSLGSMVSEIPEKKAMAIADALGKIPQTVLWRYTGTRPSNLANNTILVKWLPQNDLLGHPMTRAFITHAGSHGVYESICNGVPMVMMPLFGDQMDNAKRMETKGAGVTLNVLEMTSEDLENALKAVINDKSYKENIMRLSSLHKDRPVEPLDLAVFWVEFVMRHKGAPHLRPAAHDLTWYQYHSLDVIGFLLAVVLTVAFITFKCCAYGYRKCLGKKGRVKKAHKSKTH
Procedure: as §2, §3, §4, §5, §6

UGT 1A6 = target: T7, UGT 1A6 (Homo sapiens, UniProt P19224); experiment: Recombinant UGT panel, substrate utilization; assay type: biochemical; settings: 2 hour incubation at 37° C., recombinant Supersomes
T7 construct: purchased BD Gentest; host or cells: insect cells (microsomes)
Procedure: as §2, §3, §4, §5, §6

UGT 1A1 = target: T8, UGT 1A1 (Homo sapiens, UniProt P22309); experiment: Recombinant UGT panel, substrate utilization; assay type: biochemical; settings: 2 hour incubation at 37° C., recombinant Supersomes, background corrected
T8 construct: purchased BD Gentest; host or cells: insect cells (microsomes)
T8 sequence (P22309 26-533): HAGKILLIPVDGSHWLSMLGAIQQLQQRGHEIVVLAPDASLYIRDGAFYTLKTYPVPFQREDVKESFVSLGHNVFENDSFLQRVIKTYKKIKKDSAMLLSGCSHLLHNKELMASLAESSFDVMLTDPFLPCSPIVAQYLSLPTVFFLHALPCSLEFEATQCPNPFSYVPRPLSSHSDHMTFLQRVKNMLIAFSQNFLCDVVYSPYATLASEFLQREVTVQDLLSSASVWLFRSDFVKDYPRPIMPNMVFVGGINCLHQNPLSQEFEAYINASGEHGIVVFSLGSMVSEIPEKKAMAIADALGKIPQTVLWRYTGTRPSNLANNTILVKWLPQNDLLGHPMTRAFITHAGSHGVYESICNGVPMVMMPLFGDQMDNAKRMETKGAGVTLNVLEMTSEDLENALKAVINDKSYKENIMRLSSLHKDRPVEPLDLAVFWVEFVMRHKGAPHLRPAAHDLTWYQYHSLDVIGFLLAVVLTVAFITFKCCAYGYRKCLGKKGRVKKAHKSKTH
Procedure: as §2, §3, §4, §5, §6

UGT 1A3 = target: T9, UGT 1A3 (Homo sapiens, UniProt P35503); experiment: Recombinant UGT panel, substrate utilization; assay type: biochemical; settings: 2 hour incubation at 37° C., recombinant Supersomes
T9 construct: purchased BD Gentest; host or cells: insect cells (microsomes)
Procedure: as §2, §3, §4, §5, §6

UGT 2B15 = target: T10, UGT 2B15 (Homo sapiens, UniProt P54855); experiment: Recombinant UGT panel, substrate utilization; assay type: biochemical; settings: 2 hour incubation at 37° C., recombinant Supersomes
T10 construct: purchased BD Gentest; host or cells: insect cells (microsomes)
Procedure: as §2, §3, §4, §5, §6

UGT 2B4 = target: T11, UGT 2B4 (Homo sapiens, UniProt P06133); experiment: Recombinant UGT panel, substrate utilization; assay type: biochemical; settings: 2 hour incubation at 37° C., recombinant Supersomes
T11 construct: purchased BD Gentest; host or cells: insect cells (microsomes)
Procedure: as §2, §3, §4, §5, §6

UGT 2B7 = UGT 2B7 (Homo sapiens, UniProt P16662); experiment: Recombinant UGT panel, substrate utilization; assay type: biochemical; design: purchased BD Gentest; host or cells: insect cells (microsomes); settings: 2 hour incubation at 37° C., recombinant Supersomes, background corrected
Procedure: as §2, §3, §4
Reactions were assembled in a white, 96-well plate. Each well contained 20 μL of reaction mixture comprised of 100 mM TES, pH 7.5, 16 mM MgCl2, 50 μg/mL alamethicin (Sigma), 60 μM compound 3138 or compound 3478, and 0.4 mg/mL of control or recombinant UGT membranes. The reactions were initiated by addition of 20 μL of water or 8 mM triammonium UDPGA (Sigma) to each well. […] After the incubation was completed, the plate was read on a Veritas™ luminometer (Turner BioSystems, Inc.; Sunnyvale, Calif.). […]

[3] = test system: UGT isozymes in human hepatocytes; settings: compound 3138, 15-20 minutes at 37° C.
[4] = test system: endogenously expressed UGT isozymes in mammalian microsomes; experiment: Utilization of compound 3138 by mammalian tissue microsomes; assay type: biochemical; settings: 50 μM compound 3138, 0.1 mg/mL mammalian microsomes, 15 minutes at 37° C.
Procedure: The ability of endogenously expressed UGT isozymes to utilize compounds 3138 and 3165 as substrates was determined in a similar manner to the assays with recombinant microsomes (Example 1). […] Tissue microsomes were obtained from Xenotech LLC or BD Gentest. Addition of P450-Glo LDR plus cysteine and data analysis was performed in the same manner as for the recombinant Supersome panel screen (Example 1 above).

UGT 2B7, sequence (P16662 24-529): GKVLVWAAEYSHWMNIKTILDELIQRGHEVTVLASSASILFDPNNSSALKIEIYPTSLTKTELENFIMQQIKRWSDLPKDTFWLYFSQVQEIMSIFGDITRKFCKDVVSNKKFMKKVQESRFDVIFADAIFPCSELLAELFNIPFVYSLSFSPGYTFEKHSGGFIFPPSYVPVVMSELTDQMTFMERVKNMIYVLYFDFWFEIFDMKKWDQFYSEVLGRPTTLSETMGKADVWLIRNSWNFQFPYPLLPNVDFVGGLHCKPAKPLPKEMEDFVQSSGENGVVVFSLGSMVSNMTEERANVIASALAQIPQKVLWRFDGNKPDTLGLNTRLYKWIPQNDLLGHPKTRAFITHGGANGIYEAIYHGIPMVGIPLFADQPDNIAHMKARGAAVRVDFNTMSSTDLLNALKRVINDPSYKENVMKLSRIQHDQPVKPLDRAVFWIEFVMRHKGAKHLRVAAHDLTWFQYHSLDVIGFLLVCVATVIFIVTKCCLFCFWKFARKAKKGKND
T9 sequence (P35503 29-534): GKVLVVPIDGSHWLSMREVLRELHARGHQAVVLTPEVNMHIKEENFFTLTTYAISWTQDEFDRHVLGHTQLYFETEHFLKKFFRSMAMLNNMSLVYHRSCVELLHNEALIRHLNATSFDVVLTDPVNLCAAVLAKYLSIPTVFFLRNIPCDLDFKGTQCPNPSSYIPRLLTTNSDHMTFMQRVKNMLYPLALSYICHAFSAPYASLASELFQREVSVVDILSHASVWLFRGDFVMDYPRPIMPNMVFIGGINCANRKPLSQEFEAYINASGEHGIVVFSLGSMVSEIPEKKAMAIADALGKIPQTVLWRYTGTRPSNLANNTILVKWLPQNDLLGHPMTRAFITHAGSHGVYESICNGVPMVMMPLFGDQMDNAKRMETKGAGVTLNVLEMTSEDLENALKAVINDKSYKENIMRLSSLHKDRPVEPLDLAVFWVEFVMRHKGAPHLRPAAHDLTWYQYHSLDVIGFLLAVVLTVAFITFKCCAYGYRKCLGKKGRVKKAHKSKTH
T2 sequence (Q9HAW9 26-530): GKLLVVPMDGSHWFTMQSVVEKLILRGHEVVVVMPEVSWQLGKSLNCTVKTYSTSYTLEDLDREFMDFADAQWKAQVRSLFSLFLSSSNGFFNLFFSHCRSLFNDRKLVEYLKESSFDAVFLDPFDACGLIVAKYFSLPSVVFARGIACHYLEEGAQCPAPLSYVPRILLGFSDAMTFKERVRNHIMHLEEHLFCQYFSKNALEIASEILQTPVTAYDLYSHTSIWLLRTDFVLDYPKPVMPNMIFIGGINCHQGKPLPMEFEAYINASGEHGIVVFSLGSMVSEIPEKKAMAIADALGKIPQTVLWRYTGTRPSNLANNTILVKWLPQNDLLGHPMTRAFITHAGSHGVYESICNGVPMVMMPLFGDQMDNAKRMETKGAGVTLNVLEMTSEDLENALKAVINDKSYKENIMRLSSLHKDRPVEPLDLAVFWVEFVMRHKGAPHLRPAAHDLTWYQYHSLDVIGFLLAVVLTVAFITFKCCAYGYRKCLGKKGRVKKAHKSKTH
T10 sequence (P54855 24-530): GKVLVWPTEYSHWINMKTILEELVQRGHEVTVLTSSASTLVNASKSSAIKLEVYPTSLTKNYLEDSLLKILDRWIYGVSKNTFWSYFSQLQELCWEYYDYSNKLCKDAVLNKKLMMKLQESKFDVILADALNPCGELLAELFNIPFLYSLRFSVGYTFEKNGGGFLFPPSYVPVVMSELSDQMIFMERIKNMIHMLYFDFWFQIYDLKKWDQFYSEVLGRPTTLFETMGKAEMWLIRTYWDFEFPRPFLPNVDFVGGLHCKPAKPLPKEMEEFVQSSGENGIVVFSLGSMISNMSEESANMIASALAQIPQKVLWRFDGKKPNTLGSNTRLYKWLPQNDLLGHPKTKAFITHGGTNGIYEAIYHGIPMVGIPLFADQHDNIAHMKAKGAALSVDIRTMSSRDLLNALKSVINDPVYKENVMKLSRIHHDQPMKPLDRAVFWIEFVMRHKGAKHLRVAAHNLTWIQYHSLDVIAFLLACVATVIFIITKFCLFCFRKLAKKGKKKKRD
Human recombinant CYP450 1A2, sequence (P05177 whole entry): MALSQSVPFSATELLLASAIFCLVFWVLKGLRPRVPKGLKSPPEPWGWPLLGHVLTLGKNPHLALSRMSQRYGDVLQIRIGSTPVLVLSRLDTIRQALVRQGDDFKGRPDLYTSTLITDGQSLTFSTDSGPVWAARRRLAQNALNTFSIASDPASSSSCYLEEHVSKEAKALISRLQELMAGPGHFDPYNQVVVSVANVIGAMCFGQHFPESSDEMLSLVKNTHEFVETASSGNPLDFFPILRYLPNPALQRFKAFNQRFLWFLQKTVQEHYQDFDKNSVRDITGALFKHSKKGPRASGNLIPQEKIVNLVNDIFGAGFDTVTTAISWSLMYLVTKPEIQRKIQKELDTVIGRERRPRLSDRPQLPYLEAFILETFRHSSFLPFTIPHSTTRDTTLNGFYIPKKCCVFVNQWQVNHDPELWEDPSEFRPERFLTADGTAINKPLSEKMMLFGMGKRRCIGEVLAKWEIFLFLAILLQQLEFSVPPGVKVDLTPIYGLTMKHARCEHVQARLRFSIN
T4 sequence (O75795 24-530): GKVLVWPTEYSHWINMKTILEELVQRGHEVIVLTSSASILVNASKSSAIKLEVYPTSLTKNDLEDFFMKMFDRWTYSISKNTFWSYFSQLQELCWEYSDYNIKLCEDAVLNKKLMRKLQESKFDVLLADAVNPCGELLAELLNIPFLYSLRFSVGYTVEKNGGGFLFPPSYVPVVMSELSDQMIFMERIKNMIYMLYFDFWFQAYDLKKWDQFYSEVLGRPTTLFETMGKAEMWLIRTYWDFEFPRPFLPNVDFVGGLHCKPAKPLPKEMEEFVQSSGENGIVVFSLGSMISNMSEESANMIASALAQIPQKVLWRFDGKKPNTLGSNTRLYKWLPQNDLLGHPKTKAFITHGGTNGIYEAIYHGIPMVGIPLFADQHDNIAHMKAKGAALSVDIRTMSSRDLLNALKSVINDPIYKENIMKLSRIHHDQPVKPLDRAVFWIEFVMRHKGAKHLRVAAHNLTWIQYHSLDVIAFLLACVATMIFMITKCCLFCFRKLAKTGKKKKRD
T11 sequence (P06133 24-528): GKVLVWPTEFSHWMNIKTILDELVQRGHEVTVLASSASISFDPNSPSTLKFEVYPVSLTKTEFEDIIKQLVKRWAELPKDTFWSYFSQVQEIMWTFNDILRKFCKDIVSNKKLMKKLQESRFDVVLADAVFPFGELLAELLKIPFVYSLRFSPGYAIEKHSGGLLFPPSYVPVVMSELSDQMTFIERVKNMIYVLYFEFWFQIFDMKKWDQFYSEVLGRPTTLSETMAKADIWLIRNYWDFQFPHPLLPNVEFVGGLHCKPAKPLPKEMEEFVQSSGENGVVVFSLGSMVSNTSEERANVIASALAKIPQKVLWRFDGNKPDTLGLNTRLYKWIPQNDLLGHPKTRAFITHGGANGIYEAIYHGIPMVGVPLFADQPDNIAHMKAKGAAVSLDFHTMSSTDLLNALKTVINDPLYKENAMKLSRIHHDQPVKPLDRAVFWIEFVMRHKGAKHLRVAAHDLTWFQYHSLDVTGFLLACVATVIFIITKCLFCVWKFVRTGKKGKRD
T5 sequence (Q9HAW7 26-530): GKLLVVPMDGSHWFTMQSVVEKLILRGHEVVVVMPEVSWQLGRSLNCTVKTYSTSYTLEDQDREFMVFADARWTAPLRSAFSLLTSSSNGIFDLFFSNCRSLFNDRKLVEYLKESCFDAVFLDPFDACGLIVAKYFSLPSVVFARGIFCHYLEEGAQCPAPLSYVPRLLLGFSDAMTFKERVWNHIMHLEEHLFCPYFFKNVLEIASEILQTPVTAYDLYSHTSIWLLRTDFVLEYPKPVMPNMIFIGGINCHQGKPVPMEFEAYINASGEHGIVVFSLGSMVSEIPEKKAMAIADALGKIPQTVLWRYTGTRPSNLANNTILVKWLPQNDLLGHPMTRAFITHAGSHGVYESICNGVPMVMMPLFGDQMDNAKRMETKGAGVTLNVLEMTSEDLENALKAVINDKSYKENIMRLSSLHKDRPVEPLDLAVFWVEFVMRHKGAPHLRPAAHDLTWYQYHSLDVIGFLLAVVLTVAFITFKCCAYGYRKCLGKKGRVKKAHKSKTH
T7 sequence (P19224 27-532): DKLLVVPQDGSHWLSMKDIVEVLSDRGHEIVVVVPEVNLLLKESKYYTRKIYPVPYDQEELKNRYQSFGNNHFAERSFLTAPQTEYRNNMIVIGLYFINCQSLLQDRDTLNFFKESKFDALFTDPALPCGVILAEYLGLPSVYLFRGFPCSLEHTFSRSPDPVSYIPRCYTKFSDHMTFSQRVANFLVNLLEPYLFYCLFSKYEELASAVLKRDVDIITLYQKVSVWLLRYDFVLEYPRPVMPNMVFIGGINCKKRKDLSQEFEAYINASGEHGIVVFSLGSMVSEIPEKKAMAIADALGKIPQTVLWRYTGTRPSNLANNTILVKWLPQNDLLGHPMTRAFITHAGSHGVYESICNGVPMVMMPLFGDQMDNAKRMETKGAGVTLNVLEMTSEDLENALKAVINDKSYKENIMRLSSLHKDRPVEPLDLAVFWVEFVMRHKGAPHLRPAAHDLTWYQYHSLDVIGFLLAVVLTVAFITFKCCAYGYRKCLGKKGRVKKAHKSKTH

Structure (SMILES)	activity with compound 3019 in human liver microsomes [1]	entry of substrate into cells (CYP1A2)	substrate status for CYP450 1A2 [2]	% utilization of substrate by UGT 1A10 (UGT 1A10)	% utilization of substrate by UGT 1A8 (UGT 1A8)	utilization of substrate by UGT 1A4 (UGT 1A4)	utilization of substrate by UGT 2B17 (UGT 2B17)	utilization of substrate by UGT 1A7 (UGT 1A7)	% utilization of substrate by UGT 1A9 (UGT 1A9)	utilization of substrate by UGT 1A6 (UGT 1A6)	% utilization of substrate by UGT 1A1 (UGT 1A1)	utilization of substrate by UGT 1A3 (UGT 1A3)	utilization of substrate by UGT 2B15 (UGT 2B15)	utilization of substrate by UGT 2B4 (UGT 2B4)	% utilization of substrate by UGT 2B7 (UGT 2B7)	conversion of substrate by intact hepatocytes [3]	utilization by tissue microsomes compared with control 1A1 Supersomes [4]
CC(C)OC(OC(C)C)C1CSC(c2nc3ccc(O)cc3s2)=N1 (centres unmarked) [Compound 3019]	substantial activity	entered the cell	is indeed a CYP450 1A2 substrate	–	–	–	–	–	–	–	–	–	–	–	–	–	–
Cc1cc(O)cc2sc(C#N)nc12 [Compound 3138]	–	–	–	over 50%	over 50%	did not utilize either compound 3138 or 3478 to an appreciable extent	detectable levels of utilization above background	detectable levels of utilization above background	over 50%	detectable levels of utilization above background	over 50%	detectable levels of utilization above background	detectable levels of utilization above background	did not utilize either compound 3138 or 3478 to an appreciable extent	over 50%	Conversion of the PBI 3138 was seen	utilized much more of compound 3138 than the control 1A1 Supersomes
